Assay results taken from the NIST ThermoML archive (doi:10.1016/j.jct.2016.01.019).
“And” between values parts separate entries of the source, which are not always exact repeats. Identical values can stand only once. ± gives the expanded uncertainty stated by the source.

Conditions: Liquid; for mass density: 94.64 kPa, Vibrating tube method; for vapor or sublimation pressure: Ebulliometric method (Recirculating still)

OCCCO [propan-1,3-diol]
Conditions | mass density [kg/m3] | vapor or sublimation pressure
293.15 K | 1052.75 ± 3.2 | –
298.15 K | 1049.67 ± 3.2 | –
303.15 K | 1046.55 ± 3.2 | –
308.15 K | 1043.45 ± 3.2 | –
313.15 K | 1040.32 ± 3.2 | –
318.15 K | 1037.18 ± 3.2 | –
414.2 K | – | 6.65 ± 2 kPa and 6.67 ± 2 kPa
420.8 K | – | 9.93 ± 2.1 kPa
427.55 K | – | 13.33 ± 2.2 kPa
427.6 K | – | 13.47 ± 2.2 kPa
433.9 K | – | 16.75 ± 2.6 kPa
438.05 K | – | 19.99 ± 3.6 kPa
441.95 K | – | 23.46 ± 3.8 kPa
445.3 K | – | 26.66 ± 4.1 kPa
448.65 K | – | 30.22 ± 3.8 kPa
451.65 K | – | 33.22 ± 4.6 kPa
453.15 K | – | 33.33 ± 4.7 kPa
454.65 K | – | 36.69 ± 5 kPa
457.45 K | – | 39.99 ± 6.3 kPa
457.49 K | – | 40.04 ± 6.3 kPa
459.85 K | – | 43.37 ± 6 kPa
461.95 K | – | 46.67 ± 6.3 kPa and 46.66 ± 6.3 kPa
463.95 K | – | 49.97 ± 6.8 kPa
465.45 K | – | 53.24 ± 7.4 kPa
